Results: US4235962A, “Combination kit for transaminase assay of a body fluid” (The Dow Chemical Company, priority 1978, dated 1980)

Tests used:
AST = AST (Sus scrofa, UniProt P00503); conditions: cited from earlier work
[1] = biological target: T1, ALT (alanine 2-oxoglutarate aminotransferase) (Homo sapiens, UniProt P24298)
T1 sequence (P24298 2-496 limits assumed): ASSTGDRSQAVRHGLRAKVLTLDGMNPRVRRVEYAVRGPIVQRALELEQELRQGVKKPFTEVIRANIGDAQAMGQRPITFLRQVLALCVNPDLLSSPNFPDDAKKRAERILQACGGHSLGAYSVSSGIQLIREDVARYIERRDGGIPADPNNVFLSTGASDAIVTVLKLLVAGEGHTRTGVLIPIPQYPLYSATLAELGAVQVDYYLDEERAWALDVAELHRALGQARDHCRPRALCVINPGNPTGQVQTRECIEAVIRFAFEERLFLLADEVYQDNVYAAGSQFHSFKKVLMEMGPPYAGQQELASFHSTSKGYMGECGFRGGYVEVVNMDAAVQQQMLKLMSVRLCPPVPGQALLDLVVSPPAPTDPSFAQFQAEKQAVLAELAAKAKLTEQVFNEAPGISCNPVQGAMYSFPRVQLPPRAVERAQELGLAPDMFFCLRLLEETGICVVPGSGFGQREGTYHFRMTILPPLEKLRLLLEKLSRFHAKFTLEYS
Description: For precise measurement of a bimolecular reaction of the type under discussion, the rate of a reaction, at a given "B" concentration should be independent of A's concentration (i.e. at or near apparent Vmax with respect to A). However, for situations where A's concentrations are very low (i.e. endogenous serum contributions of amino acids in a side reaction situation) it becomes important to be able to access the extent of measurement of the apparent maximum velocity of said "contaminant reaction." This being the case of a combination AST/ALT test where one is concerned with the measurement of AST in an ALT test or vice versa, a mathematical outline is in order. Both side reactions are quantitatively discussed below.
ALT, likewise having a "ping pong" mechanism of catalysis, can kinetically be described identically: [formula] […] (KB /B+1 is again <<KA /A.
Therefore the [formula] […] Therefore the % V1 apparent as measured [formula]

Chain of AST (P00503 2-413 limits assumed): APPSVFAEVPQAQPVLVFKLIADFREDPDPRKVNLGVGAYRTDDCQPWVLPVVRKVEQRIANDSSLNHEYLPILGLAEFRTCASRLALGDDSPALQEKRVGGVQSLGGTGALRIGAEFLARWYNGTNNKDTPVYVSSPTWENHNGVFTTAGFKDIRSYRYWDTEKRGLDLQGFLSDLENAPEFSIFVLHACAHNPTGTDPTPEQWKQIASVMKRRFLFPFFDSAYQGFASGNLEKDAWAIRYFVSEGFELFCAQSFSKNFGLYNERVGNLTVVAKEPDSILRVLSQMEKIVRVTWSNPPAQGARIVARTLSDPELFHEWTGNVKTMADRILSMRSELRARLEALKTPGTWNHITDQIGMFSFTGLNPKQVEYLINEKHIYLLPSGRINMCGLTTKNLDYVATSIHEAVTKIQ

For `O=C(O)CCC(=O)C(=O)O` [2-oxoglutarate, 2-Oxoglutarate], the Km (AST; read-out: KB, B = 2-oxoglutarate) is given as 100 µM.

For `N[C@@H](CC(=O)O)C(=O)O` [aspartate, L-aspartate], the KA (AST; A = aspartate) is listed as 0.90 mM.

With `C[C@H](N)C(=O)O` [alanine, L-alanine] the “Theoretical turnover of ALT” value [1] was 1.32 % Vmax.
